{"source": "patent US20050026950A1", "about": "“Methods of therapeutic treatment using retinoids to achieve consistent bioavailability” (Allergan, Inc., priority 2003, published 2005)", "key": {"[1]": {"tested_on": "severe nodulocystic acne", "assay": "Multicenter double-blind placebo-controlled study of oral tazarotene in severe nodulocystic acne", "type": "in vivo, human", "conditions": "for patients withdrawing due to adverse events: treatment period", "excerpt": "A multicenter, double-blind, randomized, placebo-controlled parallel-group study is undertaken to determine the efficacy of orally administered tazarotene in treating severe nodulocystic acne.\nIn addition, washout periods for other medications for this study are: 1 week for vitamin A supplements >5000 IU; 2 weeks for topical anti-acne medications (e.g., retinoids, azelaic acid, benzoyl peroxide); 2 weeks for topical or systemic antibiotic therapy that may alter the course of acne; and 6 months for systemic retinoids.\nPatients are randomized to receive placebo or oral tazarotene (0.75, 1.5, 3, or 6 mg), in a 1:1:1:1:1 ratio once daily for 24 weeks. After this, the patients are followed without treatment for an additional 12 weeks. Patients discontinuing from the treatment period due to adverse effects or lack of efficacy are eligible for entry into the post-treatment phase.\nIn the study, overall acne severity is rated as: none (no inflammatory acne lesions); mild (few to several papules or pustules, no nodulocystic lesions); moderate (several to many papules or pustules, few to several nodulocystic lesions); and severe (numerous or extensive papules or pustules, many, for example, at least about 5 or at least about 10, nodulocystic lesions).\nTreatment success is defined as at least moderate (about 50%) improvement on the following 7-point global response scale: • 0=completely cleared • 1=almost cleared (about 90% improvement) • 2=marked response (about 75% improvement) • 3=moderate response (about 50% improvement) • 4=slight response (about 25% improvement) • 5=condition unchanged • 6=condition worsened\nIn this study, facial nodulocystic lesion count includes lesions greater than 5 mm in size. Facial papular/pustular lesion count includes lesions less than or equal to 5 mm in size. Facial non-inflammatory lesion count includes open and closed comedones.\nSebum output is assessed every 4 weeks at selected centers using the Sebutape® patches, sold by Cuderm Corporation. Urinalysis, chemistry, and hematology values are monitored. Bone formation and resorption assessments (serum bone alkaline phosphatase and serum amino terminal telopeptides, respectively) at selected centers are monitored.\nBone mineral density of spine and proximal femur at selected centers is monitored. Ligament calcification or osteophyte formation (lateral X-ray of the cervical and thoracic spine, and ankle calcaneous) is monitored. Epiphyseal growth plate closure (internal oblique X-ray of the ankle in patients less than or equal to 21 years old) is monitored."}, "[2]": {"assay": "Two placebo-controlled dose-ranging safety studies of oral tazarotene in nodulocystic acne", "type": "in vivo, human", "protocol": "Two placebo-controlled dose-ranging studies are conducted to evaluate the safety of oral tazarotene in patients having nodulocystic acne. In the first study, patients receive orally administered tazarotene at daily doses of 0.4 mg to 2.8 mg in 96 (71+25) patients (12 weeks treatment plus 12 weeks post-treatment). In the second study, daily doses of 0.75 mg to 6 mg tazarotene are administered to 181 patients (24 weeks treatment plus 12 weeks post-treatment)."}, "[3]": {"conditions": "0.75 to 6 mg once daily, 24 weeks"}}}
{"smiles": "CCOC(=O)c1ccc(C#Cc2ccc3c(c2)C(C)(C)CCS3)nc1", "note": "[tazarotene]", "values": [{"measurement": "patients withdrawing due to adverse events", "setting": "[1]; 0.75 mg group (2/35)", "result": 6, "unit": "%"}, {"measurement": "patients withdrawing due to adverse events", "setting": "[1]; 1.5 mg group (0/37)", "result": 0, "unit": "%"}, {"measurement": "incidence of treatment success vs placebo", "setting": "[1]; 3 mg and 6 mg, week 24 and post-treatment phase, p≦0.05", "result": "significantly higher incidence of treatment success"}, {"measurement": "patients withdrawing due to adverse events", "setting": "[1]; 3 mg group (2/37)", "result": 5, "unit": "%"}, {"measurement": "patients withdrawing due to adverse events", "setting": "[1]; 6 mg group (1/36)", "result": 3, "unit": "%"}, {"measurement": "reduction of overall acne severity vs placebo", "setting": "[1]; 6 mg, week 16 until end of post-treatment phase, p≦0.01", "result": "significantly more than placebo"}, {"measurement": "bone formation and resorption (serum bone alkaline phosphatase, amino terminal telopeptides)", "setting": "[1]; [3]", "result": "do not appear to be altered"}, {"measurement": "changes in urinalysis, chemistry, or hematology measures (liver function, triglycerides, total and HDL cholesterol)", "setting": "[1]; [3]", "result": "None of the treatment groups show any consistent clinically significant changes"}, {"measurement": "ligament calcification, osteophyte formation, or changes in bone density", "setting": "[1]; [3]", "result": "None of the treatment groups show any clinically significant"}, {"measurement": "percentage of patients with at least a 90% reduction in facial nodulocystic lesion count vs placebo", "setting": "[1]; 1.5, 3, and 6 mg groups, week 24", "result": "significantly greater"}, {"measurement": "sebum secretion (Sebutape method)", "setting": "[1]; oral, 0.75 to 6 mg, vs placebo", "result": "does not substantially reduce sebum secretion relative to placebo"}, {"measurement": "patients achieving treatment success (≧50% global improvement)", "setting": "[1]; three highest doses, by week 12", "result": "more than 70%"}, {"measurement": "patients achieving treatment success (≧50% global improvement)", "setting": "[1]; two highest doses, by week 24", "result": "more than 86%"}, {"measurement": "changes in urinalysis, chemistry, or hematology measures (liver function tests, triglycerides, total and HDL cholesterol)", "setting": "[2]; 0.4 mg to 6 mg daily", "result": "no consistent dose-related clinically significant changes"}, {"measurement": "ligament calcification, osteophyte formation, serum bone alkaline phosphatase, amino terminal telopeptides, bone density", "setting": "[2]; 0.4 mg to 6 mg daily", "result": "not associated with any clinically significant"}, {"measurement": "incidence of arthralgia", "setting": "[2]; 2.8 mg, n=11, treatment period", "result": 9, "unit": "%"}, {"measurement": "incidence of asthenia", "setting": "[2]; 2.8 mg, n=11, treatment period", "result": 0, "unit": "%"}, {"measurement": "incidence of cheilitis", "setting": "[2]; 2.8 mg, n=11, treatment period", "result": 64, "unit": "%"}, {"measurement": "incidence of dry skin", "setting": "[2]; 2.8 mg, n=11, treatment period", "result": 18, "unit": "%"}, {"measurement": "incidence of headache", "setting": "[2]; 2.8 mg, n=11, treatment period", "result": 9, "unit": "%"}, {"measurement": "incidence of joint disorder", "setting": "[2]; 2.8 mg, n=11, treatment period", "result": 27, "unit": "%"}, {"measurement": "incidence of myalgia", "setting": "[2]; 2.8 mg, n=11, treatment period", "result": 0, "unit": "%"}, {"measurement": "severe dry skin", "setting": "[2]; 3 mg and 6 mg groups", "result": "No patient has severe dry skin"}, {"measurement": "Emotional lability, patients", "setting": "[2]; 3 mg group", "result": 3, "unit": "%"}, {"measurement": "mild cheilitis", "setting": "[2]; 3 mg group", "result": 25, "unit": "patients"}, {"measurement": "mild dry skin", "setting": "[2]; 3 mg group", "result": 11, "unit": "patients"}, {"measurement": "moderate cheilitis", "setting": "[2]; 3 mg group", "result": 3, "unit": "patients"}, {"measurement": "moderate dry skin", "setting": "[2]; 3 mg group", "result": 2, "unit": "patient"}, {"measurement": "severe cheilitis", "setting": "[2]; 3 mg group", "result": 1, "unit": "patient"}, {"measurement": "Depression, patients", "setting": "[2]; 3 mg group (2 mild, 1 severe)", "result": 8, "unit": "%"}, {"measurement": "incidence of arthralgia", "setting": "[2]; 3 mg, n=37, treatment period", "result": 8, "unit": "%"}, {"measurement": "incidence of asthenia", "setting": "[2]; 3 mg, n=37, treatment period", "result": 19, "unit": "%"}, {"measurement": "incidence of cheilitis", "setting": "[2]; 3 mg, n=37, treatment period", "result": 78, "unit": "%"}, {"measurement": "incidence of dry skin", "setting": "[2]; 3 mg, n=37, treatment period", "result": 35, "unit": "%"}, {"measurement": "incidence of headache", "setting": "[2]; 3 mg, n=37, treatment period", "result": 19, "unit": "%"}, {"measurement": "incidence of joint disorder", "setting": "[2]; 3 mg, n=37, treatment period", "result": 14, "unit": "%"}, {"measurement": "incidence of myalgia", "setting": "[2]; 3 mg, n=37, treatment period", "result": 16, "unit": "%"}, {"measurement": "Depression, patients", "setting": "[2]; 6 mg group", "result": "none"}, {"measurement": "Emotional lability, patients", "setting": "[2]; 6 mg group", "result": 14, "unit": "%"}, {"measurement": "mild cheilitis", "setting": "[2]; 6 mg group", "result": 27, "unit": "patients"}, {"measurement": "mild dry skin", "setting": "[2]; 6 mg group", "result": 17, "unit": "patients"}, {"measurement": "moderate cheilitis", "setting": "[2]; 6 mg group", "result": 6, "unit": "patients"}, {"measurement": "moderate dry skin", "setting": "[2]; 6 mg group", "result": 1, "unit": "patient"}, {"measurement": "severe cheilitis", "setting": "[2]; 6 mg group", "result": 1, "unit": "patient"}, {"measurement": "incidence of arthralgia", "setting": "[2]; 6 mg, n=36, treatment period", "result": 28, "unit": "%"}, {"measurement": "incidence of asthenia", "setting": "[2]; 6 mg, n=36, treatment period", "result": 19, "unit": "%"}, {"measurement": "incidence of cheilitis", "setting": "[2]; 6 mg, n=36, treatment period", "result": 94, "unit": "%"}, {"measurement": "incidence of dry skin", "setting": "[2]; 6 mg, n=36, treatment period", "result": 50, "unit": "%"}, {"measurement": "incidence of headache", "setting": "[2]; 6 mg, n=36, treatment period", "result": 36, "unit": "%"}, {"measurement": "incidence of joint disorder", "setting": "[2]; 6 mg, n=36, treatment period", "result": 19, "unit": "%"}, {"measurement": "incidence of myalgia", "setting": "[2]; 6 mg, n=36, treatment period", "result": 25, "unit": "%"}, {"measurement": "patients withdrawing from either study due to adverse events", "setting": "[2]; both studies, 7/277 patients including placebo", "result": 2.5, "unit": "%"}]}
